{"source": "paper PMC9656319", "about": "“Pharmacokinetics and Tissue Distribution of Coumarins from Tagetes lucida in an LPS-Induced Neuroinflammation Model” (Plants, 2022)", "key": {"[1]": {"experiment": "Pharmacokinetic study in plasma after oral hexanic extract of Tagetes lucida, healthy and LPS-damaged mice", "assay_type": "in vivo, ICR mice", "details": "for Cmax / AUC(0-inf) / MRT / Tmax / half-life / AUC(0-t): ICR, mouse, po, 10 mg/kg; for Cmax / AUC(0-inf) / MRT / Tmax / half-life / AUC(0-t) / Cl/F: plasma, 10 mg/kg oral hexanic extract, mean ± SEM (n = 5); for Cmax: non-compartmental; for AUC(0-t): to 6 h", "method": "The optimized HPLC-validated method for the quantification of coumarins present in the hexane extract of T. lucida was used to evaluate the concentration profiles over time in the plasma, brain, kidney, and spleen biological matrices after an oral administration of 10 mg/kg of the extract.\nBlood samples were obtained from the retro-orbital sinus of mice and collected in heparinized tubes. Plasma was separated by centrifugation at 3500 rpm for 5 min and stored in new Eppendorf tubes at −70 °C, until further processing.\n(§1) One hundred microliters of plasma and organs samples, spiked with calibration and QC concentration or samples from the pharmacokinetic study, were mixed with 300 µL of acetonitrile containing the IS at 10 µg/mL for protein precipitation, and vortexed for 3 min. Then, 200 µL of dichloromethane were added, for liquid–liquid extraction of the bioactive compounds, and vortexed for 5 min. The mixture was centrifuged at 14,000 rpm for 10 min, and the extracted organic layers were placed in new tubes, until completely dry at room temperature. For quantitative analysis, samples were resuspended in 100 µL of methanol, transferred to sampling vials, and injected into the chromatographic system, described below.\nA pharmacokinetic study was carried out in sixty mice, divided in six subgroups, according to sample collection times. An acute inflammation process by the intraperitoneal (i.p.) administration of LPS at 2 mg/kg was induced in half of the mice per group, while the other half received an i.p. injection of saline solution. Ten min after the damage was induced, the mice were administered with an oral dose of 10 mg/kg of the bioactive fraction dissolved in a 1% Tween-20 aqueous solution. Blood and tissue samples were obtained and processed at 0, 0.25, 0.75, 1.5, 2, 4, and 6 h post-dosing, as indicated in the “Samples collection” and “Plasma and tissue samples processing” sections.\nPharmacokinetic parameters of PE, SC, DF, HR, and PU in plasma were calculated by PKSolver software."}, "[2]": {"experiment": "Tissue distribution in the brain after oral hexanic extract of Tagetes lucida, healthy and LPS-administrated mice", "assay_type": "in vivo, ICR mice", "details": "after the initial absorption process", "method": "After blood sampling, the mice were sacrificed in a chamber with chloroform by an overdose of anesthesia. The brain, kidney, and spleen were quickly removed and rinsed with saline solution, fresh weight was recorded, and immediately placed on ice. Subsequently, the organs were freeze-dried, grounded, and weighted. The lyophilized organs were individually suspended in methanol in a 1:1 volume: dry weight ratio for 24 h, then sonicated for 5 min and centrifuged at 14,000 rpm for 7 min. The supernatants were recovered in clean tubes and stored at −70 °C until their use.\nas §1\nA pharmacokinetic study was carried out in sixty mice, divided in six subgroups, according to sample collection times. An acute inflammation process by the intraperitoneal (i.p.) administration of LPS at 2 mg/kg was induced in half of the mice per group, while the other half received an i.p. injection of saline solution. Ten min after the damage was induced, the mice were administered with an oral dose of 10 mg/kg of the bioactive fraction dissolved in a 1% Tween-20 aqueous solution. […]\nTo evaluate the distribution in the tissues, bioactive coumarins were quantified in the lyophilized organs, and concentrations were adjusted to the volumes of liquid obtained by the difference between the dry and fresh weights of each tissue to simulate a distribution approximation of the compounds by tissue system."}, "[3]": {"experiment": "Stability of the analytes in spiked plasma, brain, kidney and spleen matrices (autosampler, long-term, freeze-thaw)", "assay_type": "physicochemical, mice", "details": "for Stability Autosampler RE (%): processed samples in autosampler vials 24 h room temperature; for Stability Freeze-Thaw RE (%): three cycles (−4 °C to 25 °C); for Stability Long-Term RE (%): −70 °C for 30 days", "method": "The stability of the compounds obtained from each enriched matrices at the QC concentrations was evaluated under different conditions that covered the processing, handling, and storage phases that could be developed throughout the study.\nIndividual stock solutions of PE, SC, DF, HR, PU, and rutin (IS) were prepared separately in methanol (1 mg/mL) and stored at −4 °C until use. From the stocks, a working solution in methanol was prepared at a concentration of 200 µg/mL of each coumarin. Blank plasma or organs supernatant samples (80 µL) were spiked with 20 µL of serial dilutions of working solution to obtain calibration curves ranging between 0.156, 0.312, 0.625, 1.25, 2.5, 5, 10, 20, and 40 µg/mL of each coumarin. Quality control (QC) samples were prepared at three levels of 0.3 (low), 3 (medium), and 30 (high) µg/mL for each coumarin.\nThe stability of the analytes in plasma, brain, kidneys, and spleen was evaluated by the analyzed concentrations of QC subjected to three different conditions. Short-term stability was determined by analysis of samples processed in the autosampler vials at 24 h at room temperature. Long-term stability was tested on samples stored at −70 °C for 30 days. Freeze-thaw stability was determined after three cycles (−4 °C to 25 °C) on three consecutive days."}}}
{"smiles": "CC(C)=CCOc1ccc2ccc(=O)oc2c1", "note": "[PU, 7-O-prenylumbelliferone]", "values": [{"measurement": "Cmax", "setting": "[1]; LPS-damaged ICR mice (LPS 2 mg/kg i.p.)", "value": "690 ± 70", "unit": "ng/mL"}, {"measurement": "AUC(0-inf)", "setting": "[1]; LPS-damaged ICR mice", "value": "2240 ± 260", "unit": "ng·h/mL"}, {"measurement": "MRT", "setting": "[1]; LPS-damaged ICR mice", "value": "2.68 ± 0.14", "unit": "h"}, {"measurement": "Tmax", "setting": "[1]; LPS-damaged ICR mice", "value": "1.05 ± 0.31", "unit": "h"}, {"measurement": "half-life", "setting": "[1]; LPS-damaged ICR mice", "value": "0.95 ± 0.1", "unit": "h"}, {"measurement": "AUC(0-t)", "setting": "[1]; LPS-damaged ICR mice", "value": "2220 ± 260", "unit": "ng·h/mL"}, {"measurement": "AUC(0-inf)", "setting": "[1]; healthy ICR mice", "value": "1520 ± 120", "unit": "ng·h/mL"}, {"measurement": "MRT", "setting": "[1]; healthy ICR mice", "value": "2.15 ± 0.11", "unit": "h"}, {"measurement": "Tmax", "setting": "[1]; healthy ICR mice", "value": "1.55 ± 0.23", "unit": "h"}, {"measurement": "half-life", "setting": "[1]; healthy ICR mice", "value": "0.92 ± 0.06", "unit": "h"}, {"measurement": "Cmax", "setting": "[1]; healthy ICR mice", "value": "560 ± 50", "unit": "ng/mL"}, {"measurement": "AUC(0-t)", "setting": "[1]; healthy ICR mice", "value": "1490 ± 110", "unit": "ng·h/mL"}, {"measurement": "time of concentration peak in plasma after administration of the extract", "setting": "[1]; LPS-treated mice, Figure 3e", "value": "up to 4 h"}, {"measurement": "Cl/F", "setting": "[1]; LPS-damaged ICR mice", "value": "46.95 ± 5.03 (mg/kg)/(μg/mL)/h"}, {"measurement": "Cl/F", "setting": "[1]; healthy ICR mice", "value": "67.37 ± 5.33 (mg/kg)/(μg/mL)/h"}, {"measurement": "time at which the highest concentration in the brain tissue is reached", "setting": "[2]", "value": 15, "unit": "min"}, {"measurement": "Stability Autosampler RE (%)", "setting": "[3]; brain, nominal 0.3 µg/mL", "value": 2.13, "unit": "%"}, {"measurement": "Stability Freeze-Thaw RE (%)", "setting": "[3]; brain, nominal 0.3 µg/mL", "value": -6.54, "unit": "%"}, {"measurement": "Stability Long-Term RE (%)", "setting": "[3]; brain, nominal 0.3 µg/mL", "value": 3.45, "unit": "%"}, {"measurement": "Stability Autosampler RE (%)", "setting": "[3]; brain, nominal 3.0 µg/mL", "value": 1.80, "unit": "%"}, {"measurement": "Stability Freeze-Thaw RE (%)", "setting": "[3]; brain, nominal 3.0 µg/mL", "value": -4.49, "unit": "%"}, {"measurement": "Stability Long-Term RE (%)", "setting": "[3]; brain, nominal 3.0 µg/mL", "value": -5.42, "unit": "%"}, {"measurement": "Stability Autosampler RE (%)", "setting": "[3]; brain, nominal 30.0 µg/mL", "value": 4.57, "unit": "%"}, {"measurement": "Stability Freeze-Thaw RE (%)", "setting": "[3]; brain, nominal 30.0 µg/mL", "value": -1.74, "unit": "%"}, {"measurement": "Stability Long-Term RE (%)", "setting": "[3]; brain, nominal 30.0 µg/mL", "value": -4.61, "unit": "%"}, {"measurement": "Stability Autosampler RE (%)", "setting": "[3]; kidney, nominal 0.3 µg/mL", "value": 7.10, "unit": "%"}, {"measurement": "Stability Freeze-Thaw RE (%)", "setting": "[3]; kidney, nominal 0.3 µg/mL", "value": 3.61, "unit": "%"}, {"measurement": "Stability Long-Term RE (%)", "setting": "[3]; kidney, nominal 0.3 µg/mL", "value": 5.54, "unit": "%"}, {"measurement": "Stability Autosampler RE (%)", "setting": "[3]; kidney, nominal 3.0 µg/mL", "value": 5.21, "unit": "%"}, {"measurement": "Stability Freeze-Thaw RE (%)", "setting": "[3]; kidney, nominal 3.0 µg/mL", "value": 2.01, "unit": "%"}, {"measurement": "Stability Long-Term RE (%)", "setting": "[3]; kidney, nominal 3.0 µg/mL", "value": 8.68, "unit": "%"}, {"measurement": "Stability Autosampler RE (%)", "setting": "[3]; kidney, nominal 30.0 µg/mL", "value": 1.66, "unit": "%"}, {"measurement": "Stability Freeze-Thaw RE (%)", "setting": "[3]; kidney, nominal 30.0 µg/mL", "value": -1.02, "unit": "%"}, {"measurement": "Stability Long-Term RE (%)", "setting": "[3]; kidney, nominal 30.0 µg/mL", "value": 6.46, "unit": "%"}, {"measurement": "Stability Autosampler RE (%)", "setting": "[3]; plasma, nominal 0.3 µg/mL", "value": -6.02, "unit": "%"}, {"measurement": "Stability Freeze-Thaw RE (%)", "setting": "[3]; plasma, nominal 0.3 µg/mL", "value": -9.54, "unit": "%"}, {"measurement": "Stability Long-Term RE (%)", "setting": "[3]; plasma, nominal 0.3 µg/mL", "value": -8.22, "unit": "%"}, {"measurement": "Stability Autosampler RE (%)", "setting": "[3]; plasma, nominal 3.0 µg/mL", "value": -11.68, "unit": "%"}, {"measurement": "Stability Freeze-Thaw RE (%)", "setting": "[3]; plasma, nominal 3.0 µg/mL", "value": -9.78, "unit": "%"}, {"measurement": "Stability Long-Term RE (%)", "setting": "[3]; plasma, nominal 3.0 µg/mL", "value": -10.56, "unit": "%"}, {"measurement": "Stability Autosampler RE (%)", "setting": "[3]; plasma, nominal 30.0 µg/mL", "value": -9.86, "unit": "%"}, {"measurement": "Stability Freeze-Thaw RE (%)", "setting": "[3]; plasma, nominal 30.0 µg/mL", "value": -5.10, "unit": "%"}, {"measurement": "Stability Long-Term RE (%)", "setting": "[3]; plasma, nominal 30.0 µg/mL", "value": -4.81, "unit": "%"}, {"measurement": "Stability Autosampler RE (%)", "setting": "[3]; spleen, nominal 0.3 µg/mL", "value": -0.09, "unit": "%"}, {"measurement": "Stability Freeze-Thaw RE (%)", "setting": "[3]; spleen, nominal 0.3 µg/mL", "value": -8.53, "unit": "%"}, {"measurement": "Stability Long-Term RE (%)", "setting": "[3]; spleen, nominal 0.3 µg/mL", "value": -6.92, "unit": "%"}, {"measurement": "Stability Autosampler RE (%)", "setting": "[3]; spleen, nominal 3.0 µg/mL", "value": -4.98, "unit": "%"}, {"measurement": "Stability Freeze-Thaw RE (%)", "setting": "[3]; spleen, nominal 3.0 µg/mL", "value": 2.88, "unit": "%"}, {"measurement": "Stability Long-Term RE (%)", "setting": "[3]; spleen, nominal 3.0 µg/mL", "value": 7.56, "unit": "%"}, {"measurement": "Stability Autosampler RE (%)", "setting": "[3]; spleen, nominal 30.0 µg/mL", "value": -2.63, "unit": "%"}, {"measurement": "Stability Freeze-Thaw RE (%)", "setting": "[3]; spleen, nominal 30.0 µg/mL", "value": 2.27, "unit": "%"}, {"measurement": "Stability Long-Term RE (%)", "setting": "[3]; spleen, nominal 30.0 µg/mL", "value": 4.26, "unit": "%"}]}
